# Results taken from ChEMBL document CHEMBL1201862, “PubChem BioAssay data set” (2004).
#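 Method: 48-hour compound exposure of cells in 96-well plates, five concentrations, linear interpolation of endpoints. GI50 = concentration required for 50% inhibition of growth.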 The source made the active and inactive calls. No stated cut-off is given here; in the data, active = GI50 up to about 1.1 µM and inactive = higher. Square brackets hold non-standard residues; d marks the D form. Peptide text beside a SMILES is read from it. * marks the point of attachment. X26 = COC1=CC(=O)N(C(=O)[C@@H](O*)C(C)C)[C@H]1Cc1ccccc1; NMeL = CN[C@@H](CC(C)C)C(=O)O; Hexanoyl = CCCCCC(=O)*
# Legend:
# Assay in all cases: NCI tumour cell line growth inhibition, 48 h
# BT-549 = system: BT-549
# SNB-19 = system: SNB-19
# HOP-92 = system: HOP-92
# NCI-H522 = system: NCI-H522
# SF-295 = system: SF-295
# SF-539 = system: SF-539
# UACC-257 = system: UACC-257
# CCRF-CEM = system: CCRF-CEM
# MDA-MB-231 = system: MDA-MB-231
# T47D = system: T47D
# SK-OV-3 = system: SK-OV-3
# M14 = system: M14
# RXF 393 = system: RXF 393
# SF-268 = system: SF-268
# MDA-N = system: MDA-N
# HCT-116 = system: HCT-116
# PC-3 = system: PC-3
# HOP-62 = system: HOP-62
# OVCAR-5 = system: OVCAR-5
# SR = system: SR
SMILES,GI50 (BT-549),GI50 (SNB-19),GI50 (HOP-92),GI50 (NCI-H522),GI50 (SF-295),GI50 (SF-539),GI50 (UACC-257),GI50 (CCRF-CEM),GI50 (MDA-MB-231),GI50 (T47D),GI50 (SK-OV-3),GI50 (M14),GI50 (RXF 393),GI50 (SF-268),GI50 (MDA-N),GI50 (HCT-116),GI50 (PC-3),GI50 (HOP-62),GI50 (OVCAR-5),GI50 (SR)
CSc1nnnc2ccccc12,> 100 µM (inactive),> 100 µM (inactive),> 100 µM (inactive),> 100 µM (inactive),> 100 µM (inactive),> 100 µM (inactive),> 100 µM (inactive),51.4 µM (inactive),> 100 µM (inactive),85.1 µM (inactive),> 100 µM (inactive),> 100 µM (inactive),> 100 µM (inactive),> 100 µM (inactive),> 100 µM (inactive),> 100 µM (inactive),> 100 µM (inactive),> 100 µM (inactive),> 100 µM (inactive),
Cn1cc(C2NC(=O)c3ccccc3N2)c2ccccc21 (configuration not stated),> 100 µM (inactive),1.55 µM (inactive),22.3 µM (inactive),0.695 µM (active),0.305 µM (active),1.86 µM (inactive),5.6 µM (inactive),0.413 µM (active),2.14 µM (inactive),,0.35 µM (active),0.578 µM (active),0.681 µM (active),3.86 µM (inactive),0.0632 µM (active),0.587 µM (active),0.188 µM (active),0.861 µM (active),1.18 µM (inactive),
O=[N+]([O-])c1ccc2nc(-c3ccccn3)c(-c3ccccn3)nc2c1,> 100 µM (inactive),> 100 µM (inactive),> 100 µM (inactive),44.9 µM (inactive),96.8 µM (inactive),45.9 µM (inactive),98.4 µM (inactive),69.8 µM (inactive),,> 100 µM (inactive),> 100 µM (inactive),66.7 µM (inactive),86.5 µM (inactive),> 100 µM (inactive),45.4 µM (inactive),38.9 µM (inactive),38.5 µM (inactive),35.1 µM (inactive),> 100 µM (inactive),33.1 µM (inactive)
CCN(CC)C(=S)SS(=O)(=O)c1ccc(C)cc1,28.7 µM (inactive),61.1 µM (inactive),,< 0.01 µM (active),52.7 µM (inactive),16.9 µM (inactive),19.2 µM (inactive),< 0.01 µM (active),35.7 µM (inactive),59.7 µM (inactive),> 100 µM (inactive),13.9 µM (inactive),16.8 µM (inactive),55.2 µM (inactive),27.9 µM (inactive),,,23.2 µM (inactive),> 100 µM (inactive),
CCOc1ccccc1/C=C1\NC(=O)N(/C=C2\C(=O)Oc3ccccc3C2=O)C1=O,50.9 µM (inactive),61.7 µM (inactive),21 µM (inactive),29.2 µM (inactive),44.5 µM (inactive),78.5 µM (inactive),40.1 µM (inactive),24.2 µM (inactive),44.6 µM (inactive),,59.7 µM (inactive),51.4 µM (inactive),9.82 µM (inactive),> 100 µM (inactive),42 µM (inactive),39.1 µM (inactive),42.5 µM (inactive),53.1 µM (inactive),> 100 µM (inactive),
CNc1nc(=S)[nH]c2sc3c(c12)CCCC3,> 75 µM (inactive),> 75 µM (inactive),,> 75 µM (inactive),> 75 µM (inactive),,> 75 µM (inactive),,> 75 µM (inactive),> 75 µM (inactive),,,> 75 µM (inactive),> 75 µM (inactive),,> 75 µM (inactive),> 75 µM (inactive),> 75 µM (inactive),> 75 µM (inactive),> 75 µM (inactive)
Cc1ccc2c(c1C)CC1(Cc3c(C)ccc(C)c3C1=O)C2=O (configuration not stated),> 100 µM (inactive),> 100 µM (inactive),> 100 µM (inactive),> 100 µM (inactive),> 100 µM (inactive),> 100 µM (inactive),> 100 µM (inactive),> 100 µM (inactive),> 100 µM (inactive),> 100 µM (inactive),> 100 µM (inactive),> 100 µM (inactive),> 100 µM (inactive),> 100 µM (inactive),> 100 µM (inactive),> 100 µM (inactive),,,> 100 µM (inactive),
COc1cc(/C=C2/C(=O)N/C(=N\C(C)=O)N2C)ccc1OC(C)=O,> 100 µM (inactive),> 100 µM (inactive),> 100 µM (inactive),,> 100 µM (inactive),> 100 µM (inactive),> 100 µM (inactive),,> 100 µM (inactive),> 100 µM (inactive),> 100 µM (inactive),> 100 µM (inactive),,,> 100 µM (inactive),> 100 µM (inactive),> 100 µM (inactive),> 100 µM (inactive),> 100 µM (inactive),
C=CCNC1=C2C[C@@H](C)C[C@@H](OC)[C@H](OC(=O)CCCCN)[C@H](C)/C=C(\C)[C@@H](OC(N)=O)[C@H](OC)/C=C\C=C(/C)C(=O)NC(=CC1=O)C2=O,19 µM (inactive),11.3 µM (inactive),18.8 µM (inactive),13.6 µM (inactive),15.7 µM (inactive),,6.17 µM (inactive),7.01 µM (inactive),14.2 µM (inactive),14.8 µM (inactive),6.31 µM (inactive),13.4 µM (inactive),14.8 µM (inactive),16.9 µM (inactive),8.55 µM (inactive),13.8 µM (inactive),,5.83 µM (inactive),19 µM (inactive),4.93 µM (inactive)
COC(=O)/C(=C(/C)c1ccco1)P(=O)(OC)OC,> 100 µM (inactive),> 100 µM (inactive),> 100 µM (inactive),> 100 µM (inactive),> 100 µM (inactive),> 100 µM (inactive),> 100 µM (inactive),> 100 µM (inactive),> 100 µM (inactive),> 100 µM (inactive),> 100 µM (inactive),> 100 µM (inactive),> 100 µM (inactive),> 100 µM (inactive),,> 100 µM (inactive),> 100 µM (inactive),> 100 µM (inactive),> 100 µM (inactive),> 100 µM (inactive)
NC1CNC(=O)c2cscc21 (configuration not stated),> 100 µM (inactive),> 100 µM (inactive),> 100 µM (inactive),> 100 µM (inactive),> 100 µM (inactive),,> 100 µM (inactive),> 100 µM (inactive),,,,> 100 µM (inactive),> 100 µM (inactive),> 100 µM (inactive),> 100 µM (inactive),> 100 µM (inactive),53.2 µM (inactive),,> 100 µM (inactive),> 100 µM (inactive)
C=C1C(=O)O[C@@H]2[C@@H]3O[C@@H](C[C@@H]13)[C@](C)(O)CC/C=C(\C)CCC[C@@H]2C,12.6 µM (inactive),15.1 µM (inactive),13.2 µM (inactive),5.87 µM (inactive),26.4 µM (inactive),10.5 µM (inactive),12.3 µM (inactive),2.86 µM (inactive),16.6 µM (inactive),18.7 µM (inactive),19.3 µM (inactive),12.2 µM (inactive),13.6 µM (inactive),16.9 µM (inactive),4.75 µM (inactive),8.13 µM (inactive),10.4 µM (inactive),15.9 µM (inactive),22 µM (inactive),
O=C(O)c1ccc(NC(NC(=O)C(C(F)(F)F)C(F)(F)F)(C(F)(F)F)C(F)(F)F)cc1,> 100 µM (inactive),> 100 µM (inactive),,,,> 100 µM (inactive),> 100 µM (inactive),> 100 µM (inactive),,> 100 µM (inactive),> 100 µM (inactive),> 100 µM (inactive),> 100 µM (inactive),> 100 µM (inactive),> 100 µM (inactive),> 100 µM (inactive),> 100 µM (inactive),,> 100 µM (inactive),> 100 µM (inactive)
[O-][Cl+3]([O-])([O-])[O-].[O-][Cl+3]([O-])([O-])[O-].c1ccn2c(N3CCCC3)[n+]3c4ccccc4n4c(N5CCCC5)[n+]5ccccc5c4c3c2c1,30.9 µM (inactive),29.4 µM (inactive),73.1 µM (inactive),64.1 µM (inactive),46.3 µM (inactive),57.9 µM (inactive),34.6 µM (inactive),> 100 µM (inactive),> 100 µM (inactive),43.5 µM (inactive),,> 100 µM (inactive),38.3 µM (inactive),15.3 µM (inactive),,> 100 µM (inactive),46.5 µM (inactive),,> 100 µM (inactive),38.1 µM (inactive)
CCCCCC(=O)N[C@H](C(=O)N[C@H](C(=O)N(C)[C@@H](CC(C)C)C(=O)N1CCC[C@H]1C(=O)N1CCC[C@H]1C(=O)O[C@H](C(=O)N1C(=O)C=C(OC)[C@@H]1Cc1ccccc1)C(C)C)C(C)C)C(C)C (Hexanoyl-VV[NMeL]PP-X26),83.4 µM (inactive),,36.1 µM (inactive),> 100 µM (inactive),> 100 µM (inactive),> 59.2 µM (inactive),45.3 µM (inactive),42.9 µM (inactive),> 64.9 µM (inactive),70.8 µM (inactive),> 100 µM (inactive),> 33.3 µM (inactive),10.1 µM (inactive),> 41.9 µM (inactive),28.3 µM (inactive),54.7 µM (inactive),27.2 µM (inactive),> 100 µM (inactive),> 100 µM (inactive),
